Assays:
[1] = Transdermal flux test, Franz Diffusion Cell method; assay type: in vitro ADME, human
Description: Transdermal flux of Dextromethorphan from the patch was tested using human cadaver epidermis by Franz Diffusion Cell method.
Patch formulations A, B, and C prepared in Example 1 were used for a skin permeation study using the following protocol: • Franz cell assembly—Logan Instruments (6-cell unit) • Each cell has 12 mL volume, 1.5 cm diameter orifice • Receptor medium is a phosphate buffer solution (PBS) pH 7.4 • Cell temperature is maintained at 37° C. • Sampling method: take 1.5 mL for HPLC assay, empty cell, replace with fresh medium • Sampling time points: 4, 8, 12, 24 and 48 hours • Cadaver skin is used and is obtained from New York Fire Fighters Skin Bank. Skin No. MM07116, While, person, skin site: left posterior leg. • Assay method for media: HPLC based.
Formulations D0-D2 were also tested for their in vitro flux characteristics following the same protocol as described in Example 2.

[2] = Transdermal delivery rate without enhancer
Excerpt: The unpredictability of transdermal administration is notorious. […] Structurally and by calculated Log P, these compounds are very similar, such that this difference could not be anticipated. See, U.S. Provisional Appl. No. 62/568,028, filed Oct. 4, 2017, the content of which is incorporated by reference in its entirety.

[3] = human, in vivo; cited from earlier work

In the case of `CCCCCCCCCCCCCC(=O)OC(C)C` [IPM, isopropyl myristate], the “effect on flux of dextromethorphan” value [1] is reported as “significant enhancement of flux was observed” and the “effect on skin permeation of DXM” value [1] is reported as “significantly enhance the skin permeation of DXM”.

With `C[C@]12CC[C@H]3[C@@H](CCC4=CC(=O)CC[C@@]43C)[C@@H]1CC[C@@H]2O` [testosterone] the “transdermal delivery rate relative to beta estradiol” value [2] was “three orders of magnitude higher”.

In the case of `COc1ccc2c(c1)[C@]13CCCC[C@@H]1[C@H](C2)N(C)CC3` [dextromethorphan], the “adverse reactions reported with the individual component” value [3] is listed as “drowsiness, dizziness, nervousness or restlessness, nausea, vomiting, and stomach pain”.
